Assay [1] has as its target T1, CYP17A1 (Homo sapiens, UniProt P05093).
T1 construct: recombinant human CYP17A1, purified
T1 sequence (P05093 1-508): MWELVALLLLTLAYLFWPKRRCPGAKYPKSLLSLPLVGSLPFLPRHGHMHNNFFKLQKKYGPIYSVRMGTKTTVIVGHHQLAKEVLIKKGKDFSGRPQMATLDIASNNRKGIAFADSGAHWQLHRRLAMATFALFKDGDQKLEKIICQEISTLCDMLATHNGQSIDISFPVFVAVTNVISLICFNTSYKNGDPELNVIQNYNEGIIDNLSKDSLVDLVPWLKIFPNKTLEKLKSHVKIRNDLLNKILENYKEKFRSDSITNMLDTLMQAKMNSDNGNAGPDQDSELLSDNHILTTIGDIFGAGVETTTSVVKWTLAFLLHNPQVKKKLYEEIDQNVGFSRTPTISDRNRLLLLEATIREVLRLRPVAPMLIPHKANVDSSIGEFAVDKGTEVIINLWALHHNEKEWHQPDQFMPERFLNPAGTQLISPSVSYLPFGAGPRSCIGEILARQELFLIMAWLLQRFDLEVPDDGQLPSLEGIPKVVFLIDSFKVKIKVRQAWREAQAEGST
Description: UV-Vis spectrophotometric titration (type I spectral response). Type of assay: binding.

The test system of another assay is DU145. Description: cells. On the set-up: resazurin (Alamar blue) viability assay, resorufin fluorescence, GI50 from dose-response. To be noted: Homo sapiens, DU-145, 72 h; read-out: Viability after 72 h (GI50) DU145. On the procedure:
(§1) Cells were seeded into the 96-well tissue culture plates and, on the other day, compounds were added in different concentrations in duplicate for 72 h. Upon treatment, the resazurin solution (Sigma Aldrich, St. Louis, MI, USA) was added for 4 h, and then the fluorescence of resorufin was measured at 544 nm/590 nm (excitation/emission) using a Fluoroskan Ascent microplate reader (Labsystems, Budapest, Hungary). The GI50 value was calculated from the dose–response curves that resulted from the measurements using GraphPad Prism 5. Antiproliferative properties of all novel steroids were tested in two AR-positive prostate cancer cell lines (LNCaP and LAPC-4) and one AR-negative cell line (DU145) using the Alamar-blue assay after 72 h treatment.

The test system of the next assay is LAPC-4. The assay can be described thus: cells. To be noted: Homo sapiens, LAPC4, 72 h; read-out: Viability after 72 h (GI50) LAPC-4. Details: resazurin (Alamar blue) viability assay, resorufin fluorescence, GI50 from dose-response. The protocol:
as §1

A further assay concerns LNCaP. The assay can be described thus: cells. Details: resazurin (Alamar blue) viability assay, resorufin fluorescence, GI50 from dose-response. To be noted: Homo sapiens, 72 h, read-out: Viability after 72 h (GI50) LNCaP. The protocol:
as §1

A further assay deals with T2, AR.
T2 construct: endogenous AR in ARE14 reporter cells (22Rv1-derived)
Description: cells. To be noted: 24 h. Details: species or system ARE14; ARE-driven firefly luciferase reporter; AR transcriptional activity normalised to 1 nM R1881. On the procedure:
ARE14 cells were seeded (40,000 cells/well) into the Nunc™ MicroWell™ 96-well optical plate (Thermo Fisher Scientific, Waltham, MA, USA) on the second day. The cultivation medium was discarded, and the cells were washed with PBS. Analyzed compounds were dissolved in medium supplemented with CSS (agonist mode) or CSS with 1 nM R1881 (antagonist mode) and added to cells, including CSS and 1 nM R1881 controls. Upon 24 h of incubation, cells were washed with PBS and lysed for 10 min in a lysis buffer (10 mM Tris pH = 7.4, 2 mM DCTA, 1% nonidet P40, 2 mM DTT) at 37 °C. Next, a reaction buffer (20 mM tricine pH = 7.8, 1.07 mM MgSO4^.7H2O, 5 mM ATP, 9.4 mM luciferin) was added, and the luminescence was measured using a Tecan M200 Pro microplate reader ([…]). Based on the structural similarity of novel derivatives with galeterone and other published compounds (abiraterone, 3, and [6]), we tested the effect of our compounds towards the AR-transcriptional activity. Compounds were evaluated using an AR-dependent reporter cell line (ARE14) with a firefly-luciferase gene under the control of an androgen response element.

Assay [2] has as its target T3, CYP17A1 (Homo sapiens, UniProt P05093).
T3 construct: recombinant human CYP17A1, reconstituted system; with NADPH-cytochrome P450 reductase (rat), cytochrome b5 (human)
The assay can be described thus: reconstituted […],20-lyase assay, HPLC, […] compound. The format is biochemical. The settings on record: read-out: 17,20-Lyase Activity / Inhibition, %.
T3 sequence (P00388 2-678 partner, one chain of several): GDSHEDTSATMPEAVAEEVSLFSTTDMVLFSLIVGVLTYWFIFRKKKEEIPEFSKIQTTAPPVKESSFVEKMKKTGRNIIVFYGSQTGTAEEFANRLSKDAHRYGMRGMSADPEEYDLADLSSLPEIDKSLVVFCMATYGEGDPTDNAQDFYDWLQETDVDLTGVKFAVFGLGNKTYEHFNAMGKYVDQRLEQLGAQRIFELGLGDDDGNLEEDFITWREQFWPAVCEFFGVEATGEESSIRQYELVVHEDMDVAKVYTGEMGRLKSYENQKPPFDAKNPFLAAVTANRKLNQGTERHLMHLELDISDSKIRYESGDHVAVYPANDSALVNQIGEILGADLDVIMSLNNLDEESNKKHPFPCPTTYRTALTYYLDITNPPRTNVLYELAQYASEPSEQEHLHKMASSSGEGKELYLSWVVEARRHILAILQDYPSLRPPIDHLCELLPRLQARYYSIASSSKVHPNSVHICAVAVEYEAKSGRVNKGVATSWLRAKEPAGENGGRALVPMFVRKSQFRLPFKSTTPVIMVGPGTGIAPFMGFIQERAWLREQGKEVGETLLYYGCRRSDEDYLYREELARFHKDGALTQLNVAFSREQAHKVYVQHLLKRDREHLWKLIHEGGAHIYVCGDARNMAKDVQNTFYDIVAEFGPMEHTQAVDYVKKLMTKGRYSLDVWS
T3 sequence (P00167 2-134 partner, one chain of several): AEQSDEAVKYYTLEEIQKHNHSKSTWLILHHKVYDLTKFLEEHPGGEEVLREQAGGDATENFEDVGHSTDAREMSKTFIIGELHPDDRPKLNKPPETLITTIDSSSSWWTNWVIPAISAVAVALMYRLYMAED

Where [3] appears, read: compound alone, vs 1 nM R1881 = 100%, read-out: AGONIST MODE 2 μM.
Setting [4] is: compound alone, vs 1 nM R1881 = 100%, read-out: AGONIST MODE 10 μM.
[5] abbreviates: compound alone, vs 1 nM R1881 = 100%, read-out: AGONIST MODE 50 μM.
The mark [6] stands for this setting: with 1 nM R1881, read-out: % of control remaining.

Where two headings read alike, the source gives them in different places.

`C[C@]12CC[C@H]3[C@@H](CC=C4C[C@@H](O)CC[C@@]43C)[C@@H]1CC[C@@H]2Cc1ccno1` [24a, (17R)-(Isoxazol-5-ylmethyl)-androst-5-en-3β-ol]: the dissociation constant (Kd) (as a rule, a measure of binding affinity in units of concentration) on CYP17A1 [1] (read-out: Kd) stood at 0.13 ± 0.02 µM.

For `CCCCc1cc(C[C@H]2CC[C@H]3[C@@H]4CC=C5C[C@@H](O)CC[C@]5(C)[C@H]4CC[C@]23C)on1` [24d, 17β-((3-Butylisoxazol-5-yl)methyl)-androst-5-en-3β-ol], the concentration for 50% growth inhibition (GI50) in the assay with DU145, in the assay on LAPC-4 and in the assay with LNCaP was more than 50 µM each time. Moreover, the Kd on CYP17A1 [1] (read-out: Kd) was 1.5 ± 0.21 µM. Besides, the activity at 2 µM was 17.8 ± 0.1% with AR (setting [3]) and 109 ± 12.1% with AR (setting [6]). Moreover, the activity at 10 µM in the assay with AR (setting [4]) turned out to be 21.1 ± 1.6%; in the assay on AR (setting [6]), 113 ± 21.1%. Also, the activity at 50 µM with AR (setting [5]) was 18.6 ± 3.6%; in the assay with AR (setting [6]) it was 104 ± 42.6%.

Regarding `C[C@]12CC[C@H]3[C@@H](CC=C4C[C@@H](O)CC[C@@]43C)[C@@H]1CC[C@@H]2Cc1cc(-c2ccccc2)no1` [24e, (17R)-17-((3-Phenylisoxazol-5-yl)methyl)-androst-5-en-3β-ol], the concentration for 50% growth inhibition (GI50) in the assay on DU145, in the assay on LAPC-4 and in the assay with LNCaP was more than 50 µM each time. Also, the values for the activity at 2 µM in the assay with AR (setting [3]) and in the assay on AR (setting [6]) were 14.7 ± 0.5% and 101 ± 9.5%, respectively. Moreover, the values for the activity at 10 µM with AR (setting [4]) and in the assay on AR (setting [6]) were 14.2 ± 1.4% and 101 ± 13.6%, respectively. Further, the activity at 50 µM in the assay on AR (setting [5]) came to 12.8 ± 0.2%; in the assay with AR (setting [6]) it was 125 ± 27.4%.

Regarding `CC(C)(O)c1cc(C[C@H]2CC[C@H]3[C@@H]4CC=C5C[C@@H](O)CC[C@]5(C)[C@H]4CC[C@]23C)on1` [24j, (17R)-17-((3-(2-Hydroxypropan-2-yl)isoxazol-5-yl)methyl)-androst-5-en-3β-ol], the GI50 (as a rule, the concentration giving 50% growth inhibition) was more than 50 µM in the assay on DU145, 18.2 ± 1.2 µM with LAPC-4 and 25.8 ± 0.6 µM in the assay with LNCaP. Further, the Kd at CYP17A1 [1] (read-out: Kd) is 1.9 ± 0.23 µM. Further, the activity at 2 µM with AR (setting [3]) stood at 14.4 ± 2.8%; in the assay on AR (setting [6]) it was 100 ± 13.5%. Also, the values for the activity at 10 µM with AR (setting [4]) and in the assay on AR (setting [6]) were 12.6 ± 0.1% and 84.8 ± 17.4%, respectively. Moreover, the activity at 50 µM was found to be 6.1 ± 1.5% in the assay with AR (setting [5]) and 21.6 ± 7.8% with AR (setting [6]).

Turning to `C[C@]12CC[C@H]3[C@@H](CC=C4C[C@@H](O)CC[C@@]43C)[C@@H]1CC[C@@H]2Cc1ccon1` [41a, (17R)-17-(Isoxazol-3-ylmethyl)-androst-5-en-3β-ol], the 50% growth inhibitory concentration (GI50) in the assay with DU145, in the assay with LAPC-4 and with LNCaP was more than 50 µM in each case. In addition, at CYP17A1 [2], the inhibition at 50 µM turned out to be 42.3%. Besides, the activity at 2 µM is 14.5 ± 1.5% in the assay with AR (setting [3]) and 98.2 ± 17.5% in the assay on AR (setting [6]). For the same molecule, the activity at 10 µM in the assay on AR (setting [4]) turned out to be 14.7 ± 0.1%; in the assay on AR (setting [6]), 73.7 ± 14.9%. For the same molecule, the activity at 50 µM in the assay on AR (setting [5]) was 12.1 ± 1.3%; in the assay with AR (setting [6]), 50.8 ± 18.8%.

With `C[C@]12CC[C@H]3[C@@H](CC=C4C[C@@H](O)CC[C@@]43C)[C@@H]1CC[C@@H]2Cc1cc(-c2cccnc2)on1` [41f, (17R)-17-((5-(Pyridin-3-yl)isoxazol-3-yl)methyl)-androst-5-en-3β-ol], on CYP17A1 [2], the inhibition at 50 µM was found to be 41.1%.

Regarding `C[C@]12CC[C@H](O)CC1=CC[C@@H]1[C@@H]2CC[C@]2(C)C(n3cnc4ccccc43)=CC[C@@H]12` [Gal, galeterone], the GI50 with DU145 was found to be 47.6 ± 0.2 µM; in the assay with LAPC-4, 28.6 ± 0.6 µM; in the assay with LNCaP, 46.8 ± 0.1 µM. The activity at 2 µM in the assay on AR (setting [3]) is 15.4 ± 0.4%; in the assay on AR (setting [6]), 65.2 ± 6.1%. The results for the activity at 10 µM in the assay on AR (setting [4]) and with AR (setting [6]) were 10.8 ± 3.1% and 35.1 ± 3.3%, respectively. Also, the activity at 50 µM stood at 2.4 ± 1.1% with AR (setting [5]) and 3 ± 1.8% in the assay on AR (setting [6]).

`CC(=O)[C@H]1CC[C@H]2[C@@H]3CCC4=CC(=O)CC[C@]4(C)[C@H]3CC[C@]12C` [Progesterone] yielded a Kd on CYP17A1 [1] of less than 1 µM.

As to `C[C@]12CC[C@H]3[C@@H](CC=C4C[C@@H](O)CC[C@@]43C)[C@@H]1CC[C@@H]2CC(=O)/C(OC(=O)n1ccnc1)=C(\N)C1CC1` [compound 27, (E)-1-Amino-4-((17R)-3β-hydroxy-androst-5-en-17-yl)-1-cyclopropyl-3-oxobut-1-en-2-yl 1H-imidazole-1-carboxylate], the GI50 in the assay with DU145, in the assay on LAPC-4 and in the assay on LNCaP was more than 50 µM throughout. The activity at 2 µM in the assay with AR (setting [3]) was found to be 17.4 ± 0.5%; in the assay on AR (setting [6]), 89.7 ± 9.9%. In addition, the activity at 10 µM in the assay on AR (setting [4]) came to 20.9 ± 2.9%; in the assay on AR (setting [6]), 62 ± 14.8%. Further, the activity at 50 µM worked out at 20.4 ± 4.2% with AR (setting [5]) and 63.5 ± 8% in the assay with AR (setting [6]).

In the case of `C[C@]12CC[C@H]3[C@@H](CC=C4C[C@@H](O)CC[C@@]43C)[C@@H]1CC[C@@H]2Cc1cc(CO)no1` [compound 32, (17R)-17-((3-(Hydroxymethyl)isoxazol-5-yl)methyl)-androst-5-en-3β-ol], the figures for the GI50 with DU145, in the assay on LAPC-4 and in the assay on LNCaP were more than 50 µM, 18.9 ± 7.2 µM and 19.5 ± 0.1 µM, respectively. Moreover, the Kd at CYP17A1 [1] (read-out: Kd) was 13.4 ± 2.38 µM. Further, the activity at 2 µM was found to be 14 ± 1.1% with AR (setting [3]) and 99.7 ± 17.4% with AR (setting [6]). Further, the activity at 10 µM was 12.1 ± 2.7% in the assay with AR (setting [4]) and 87.8 ± 20.9% in the assay with AR (setting [6]). The activity at 50 µM with AR (setting [5]) was found to be 14.6 ± 0.5%; in the assay on AR (setting [6]) it was 31.1 ± 13.3%.

On to `C[C@]12CC[C@H]3[C@@H](CC=C4C[C@@H](O)CC[C@@]43C)[C@@H]1CC[C@@H]2Cc1cc(CCl)no1` [compound 38, (17R)-17-((3-(Chloromethyl)isoxazol-5-yl)methyl)-androst-5-en-3β-ol], for which the GI50 with DU145, in the assay on LAPC-4 and in the assay on LNCaP was more than 50 µM each time. Besides, the values for the activity at 2 µM in the assay on AR (setting [3]) and in the assay with AR (setting [6]) were 14.6 ± 1% and 96.1 ± 11.2%, respectively. Also, the activity at 10 µM with AR (setting [4]) was found to be 13 ± 0.4%; with AR (setting [6]) it was 92.6 ± 20.5%. The figures for the activity at 50 µM in the assay with AR (setting [5]) and in the assay on AR (setting [6]) were 7.3 ± 1.1% and 78.2 ± 24.9%, respectively.

The values are drawn from publication PMC9656436, “Synthesis and Biological Evaluation of New Isoxazolyl Steroids as Anti-Prostate Cancer Agents” (International Journal of Molecular Sciences, 2022).
